The values below are quoted from earlier work in patent publication US20070212387A1, “COATINGS FOR IMPLANTABLE MEDICAL DEVICES” (Sahajanand Medical Technologies Pvt. Ltd., priority 2006, published 2007).

The structures appear in SMILES notation.

Data set [1] relates to platelets.
For data set [2] the following is noted: in water.

For `O=c1c(-c2ccc(O)cc2)coc2cc(O)cc(O)c12` [Genistein, 5,7-dihydroxy-3-(4-hydroxyphenyl)-4H-1-benzopyran-4-one], in data set [1], the “concentration preventing collagen induced platelet aggregation” value is recorded as “more than 25 μM”. For the same compound, the water solubility result in data set [2] is reported as “practically insoluble in water”.

Take `O=c1c(-c2ccc(O)cc2)coc2cc(O[C@@H]3O[C@H](CO)[C@@H](O)[C@H](O)[C@H]3O)cc(O)c12` [Genistin]: the water solubility result in data set [2] is recorded as “greater water solubility than genistein”.

Regarding `O=c1c(O)c(-c2ccc(O)c(O)c2)oc2cc(O)cc(O)c12` [Quercetin, 2-(3,4-dihydroxyphenyl)-3,5,7-trihydroxy-4H-1-benzopyran-4-one], the water solubility result in data set [2] is “practically insoluble in water”.
